Measurements published in PubChem BioAssay AID1259426 (Fisher Drug Discovery Resource Center, 2018).
pEC50: −log10 of the molar value. Activity calls are given as the source filed them.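 How the source made its calls: active means EC50 under a set limit in control cells lacking the mosquito receptor, marking a fluorescence artifact; inactive means the rest.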

Molecular target: HEK293 Galpha15/GCaMP6s without NPYLR7, calcium fluorescence
Experiment: nonspecific activation in parental Galpha15/GCaMP6s cells – cell-based, HEK293 lacking NPYLR7, counter-screen for mosquito NPYLR7 agonist project, dose response (AID 1259426);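 further: potency for a rise in fluorescence over baseline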

SMILES | EC50 | pEC50
CCn1c(=O)c2c(nc(/C=C/c3ccc(OC)c(OC)c3)n2C)n(CC)c1=O | > 20 µM (inactive) | –
Cc1cc(O)c(CN2CCN(C)CC2)c2c1C(=O)/C(=C/c1cccs1)O2 | – | 4.77
COc1ccc(/C=C2\Oc3c(ccc4c3CN(CC3CCCO3)CO4)C2=O)cc1OC (stereo not drawn) | – | 5.32
CCOC(=O)c1ccccc1-c1c2ccc(=N)cc-2oc2cc(N)ccc12 | – | > 7.41
O=[N+]([O-])c1c[n+]([O-])n(-c2cccc(Cl)c2)n1 | > 20 µM (inactive) | –
COc1cc(C=C2Oc3cc(O)ccc3C2=O)cc(OC)c1OC | – | 5.32
Cc1ccc(CN(Cc2ccc(F)cc2)C(=O)CNCCN2CCOCC2)s1 | > 20 µM (inactive) | –
CCOc1cc(/C=C(\C#N)c2nc3ncc(Br)cc3[nH]2)ccc1O | – | 5.64
CSc1nc(N)c2ncn([C@@H]3O[C@H](COP(=O)(O)OP(=O)(O)OP(=O)(O)O)[C@H](O)C3O)c2n1 (stereo partly drawn) | – | 6.40
CC(C)NC[C@@H](O)c1ccc(O)c(O)c1 | – | 5.86
O=C1/C(=C/c2cc3ccccc3o2)Oc2cc(O)ccc21 | > 20 µM (inactive) | –
O=C1c2ccccc2-c2nn(CN3CCN(c4ccccc4)CC3)c3cccc1c23 | > 20 µM (inactive) | –
CC(C)C(C(=O)O)N1C(=O)/C(=C/c2ccc(O)cc2)SC1=S (stereo not drawn) | – | 5.08
N#C/C(=C\c1ccc(O)c(O)c1)C(=O)NCc1ccccc1 | > 20 µM (inactive) | –
CN(Cc1ccccc1)C1=CC2=CC(=C(C#N)C#N)CCC2CC1 (stereo not drawn) | > 20 µM (inactive) | –
C[C@@H]1OC(O[C@H]2[C@H](OC(=O)[C@]34CCC(C)(C)CC3C3=CCC5[C@@]6(C)CC[C@H](OC7O[C@@H](C)[C@H](O[C@@H]8OC[C@@H](O)[C@H](O)[C@H]8O)[C@@H](O)[C@H]7O)C(C)(C)C6CC[C@@]5(C)[C@]3(C)CC4O)OC[C@H](O)[C@H]2O)[C@H](O)[C@H](O)[C@H]1O[C@@H]1O[C@H](CO)[C@@H](O)[C@H](O)[C@H]1O (stereo partly drawn) | – | 4.99
C=C(C)Cn1c(C(=O)N2CCN(C(=O)CCC(=O)OCC)C(C)C2)cc2ccoc21 (stereo not drawn) | > 20 µM (inactive) | –
O=C(Cc1ccc2c(c1)CCC2)NCC1CCN(c2ccccc2)C1 (stereo not drawn) | > 20 µM (inactive) | –
NC(=O)CN1c2cccc3cccc(c23)S1(=O)=O | > 20 µM (inactive) | –
CCCC(C(=O)O)N1C(=O)/C(=C/c2ccc(O)cc2)SC1=S (stereo not drawn) | – | 5.08
COc1cccc(CN2COc3ccc4c(c3C2)O/C(=C\c2ccncc2)C4=O)c1 | – | 4.95
COc1ccc(-n2ccnc2-c2nc(-c3cccs3)oc2C)cn1 | > 20 µM (inactive) | –
Cn1c(C(C#N)=Cc2c(F)c(F)c(F)c(F)c2F)nc2ccccc21 | – | > 7.41
C=CCN1C=CC(=CC=C(C#N)C#N)C=C1 | – | 5.66
Nc1c2c(nc3sc4c(c13)CCCC4)CCCCC2 | > 20 µM (inactive) | –

SMILES | EC50 | pEC50
CN1C(=CC=C2C(=O)Oc3ccccc3C2=O)C(C)(C)c2ccccc21 | – | 5.70
CCOC(=O)C1CCN(C(=O)CC(c2cccc(C(F)(F)F)c2)c2c[nH]c3c(CC)cccc23)CC1 (stereo not drawn) | > 20 µM (inactive) | –
CCCS(=O)(=O)N1CCN=C1SCc1ccccc1C | > 20 µM (inactive) | –
C=CCNc1ccc2c3c(cccc13)C(=O)N(c1ccccc1)C2=O | – | 7.23
C(=Cc1ccccc1)C=NNc1ncnc2ccccc12 | > 20 µM (inactive) | –
COc1cc(OC)cc(C(=O)N2CCN(C(C(=O)Nc3ccc(NC(C)=O)cc3)C3CCCC3)CC2)c1 (stereo not drawn) | > 20 µM (inactive) | –
CN(C)/C=C1\C(=O)N(c2c(Cl)cccc2Cl)c2cc(C=C(C#N)C#N)ccc21 | – | 4.74
CNC[C@H](O)c1ccc(O)c(O)c1 | – | 7.41
CCc1nn(C(C)C(=O)NC(C)CCc2ccco2)c(=O)c2cc3occc3n12 (stereo not drawn) | – | 6.13
CCC(C)[n+]1c(C)cc(C=C2Sc3ccccc3N2C)cc1C (stereo not drawn) | – | 5.10
COc1ccccc1Oc1nc2ccccn2c(=O)c1/C=C(\C#N)c1nc2ccccc2s1 | > 20 µM (inactive) | –
Cc1[nH]c(/C=C2\C(=O)Nc3ccccc32)c(C)c1CCC(=O)O | – | > 7.41
COc1cc(C=C(C#N)S(=O)(=O)c2cc(Cl)ccc2Cl)cc(Br)c1O | – | 5.19
CCN1CCN(C2=CC3=CC(=C(C#N)C#N)CCC3CC2)CC1 (stereo not drawn) | – | > 7.41
CC1C(=O)N(c2cccc(F)c2)CCN1C(=O)C1CC1 (stereo not drawn) | > 20 µM (inactive) | –
O=c1[nH]c(CCl)nc2sc3c(c12)CCN(Cc1ccccc1)C3 | > 20 µM (inactive) | –
O=C1c2ccccc2C(=O)C1c1ccnc2ccccc12 | – | 4.76
O=C(c1snc2c(=O)n(Cc3ccccc3)c(=O)[nH]c12)N1CCSCC1 | > 20 µM (inactive) | –
Cc1ccc(-c2nc3nc(N)n(C)c(=O)c3[nH]c2=O)cc1 | > 20 µM (inactive) | –
CC1C(=O)c2cccc3c(=O)n(-c4ccccc4)c(O)c(c23)C1=O (stereo not drawn) | > 20 µM (inactive) | –
Cc1nc(=O)c(-c2ccccc2)c(C)n1-c1ccccc1O | > 20 µM (inactive) | –
O=c1oc2cc(O)ccc2cc1-c1nc2ccccc2o1 | – | 5.31
CCN1C(=Cc2cc(C)[n+](CC3CCCO3)c(C)c2)Sc2ccccc21 (stereo not drawn) | > 20 µM (inactive) | –
CCC(CO)[n+]1c(C)cc(C=C2Sc3ccccc3N2CC)cc1C (stereo not drawn) | – | 5.73
CCc1ccc(/C=C2\Oc3c(ccc4c3CN(C3CCS(=O)(=O)C3)CO4)C2=O)cc1 (stereo not drawn) | – | 4.97

SMILES | EC50 | pEC50
COCCN=Cc1cc(I)cc(I)c1O | > 20 µM (inactive) | –
COc1ccc(Cl)cc1NC(=O)/C(C#N)=C/c1coc2ccc(C)cc2c1=O | > 20 µM (inactive) | –
COc1cc(C=C(C#N)C(=O)OC(C)C)cc(Cl)c1O | > 20 µM (inactive) | –
CCN1CCN(c2ccc(C(=O)C=Cc3ccc(O)c(OC)c3)cc2F)CC1 | – | 4.95
CC(C(=O)O)N1C(=O)/C(=C/c2ccc(N(C)C)cc2)SC1=S (stereo not drawn) | – | 5.11
CCC(C)[n+]1c(C)cc(C=C2Sc3ccccc3N2CC)cc1C (stereo not drawn) | – | 5.43
CC(C)OC(=O)C(C(=O)C(F)(F)F)c1cc(NS(=O)(=O)c2ccc(Cl)cc2)ccc1O (stereo not drawn) | > 20 µM (inactive) | –
Cc1ccc(OCCNC(=O)N2CCN(S(=O)(=O)c3ccccc3Cl)CC2)c(C)c1 | > 20 µM (inactive) | –
O=C1CCCC2Nc3ncnc(Cl)c3OC12 (stereo not drawn) | – | 5.20
Cc1ccc2nc(Cn3cnc4c(Cl)cc(Cl)cc4c3=O)cc(=O)n2c1 | > 20 µM (inactive) | –
COc1cc(/C=C2\SC(=S)N(C(CC(=O)O)C(=O)O)C2=O)ccc1O (stereo not drawn) | – | 5.01
COc1cc(C=C2SC(=S)NC2=O)cc(Br)c1O | > 20 µM (inactive) | –
COc1cc(/C=C2\SC(=S)N(c3cccc(C(=O)O)c3)C2=O)ccc1O | > 20 µM (inactive) | –
CCc1nc(N=C(N)N)nc2cc(C)ccc12 | > 20 µM (inactive) | –
CCN1CC=C2C(C#N)C(=N)C(C#N)(C#N)C(c3cccs3)C2C1 (stereo not drawn) | > 20 µM (inactive) | –
CC(C)NC(=O)C(C)N1CCc2onc(-c3ccc(C(F)(F)F)cc3)c2C1 (stereo not drawn) | – | 5.07
O=c1nc2sc3[nH]c(=O)sc3cc-2s1 | – | > 7.41
N#C/C(=C/c1ccc(N2CCCCCC2)o1)c1ccc(F)cc1 | – | 4.71
CCN1C(=Cc2cc(C)[n+](C3CCCCC3)c(C)c2)Sc2ccccc21 | > 20 µM (inactive) | –
CNCC(O)c1ccc(O)c(O)c1 (stereo not drawn) | – | 6.49
CN1C(=S)N(CCCN2CCOCC2)C(=O)/C1=C/c1ccc(N(C)C)cc1 | > 20 µM (inactive) | –
COc1cccc(CN2C(=O)c3cccc(N)c3C2=O)c1 | > 20 µM (inactive) | –
CCCC1CCC(C(=O)Nc2nnc(SCC)s2)CC1 (stereo not drawn) | > 20 µM (inactive) | –
